Results reported in PubChem BioAssay (NCI).
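1) Cells in 96-well plates. 2) Compound, 48 h, 5 concentrations. 3) Linear interpolation between surrounding doses. 4) Unreached endpoint = highest concentration. TGI: concentration producing complete growth inhibition.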

Tests used:
Assay in all cases: growth of human tumour cells (NCI), 48 h
[1] = tested on: 786-0 renal
[2] = tested on: A498 renal
[3] = tested on: ACHN renal
[4] = tested on: CAKI-1 renal
[5] = tested on: COLO 205 colon
[6] = tested on: DU-145 prostate
[7] = tested on: HCC-2998 colon
[8] = tested on: HOP-62 NSCLC
[9] = tested on: HOP-92 NSCLC
[10] = tested on: IGROV1 ovarian
[11] = tested on: K-562 leukemia
[12] = tested on: KM12 colon
[13] = tested on: LOX IMVI melanoma
[14] = tested on: MALME-3M melanoma
[15] = tested on: MDA-MB-231 breast
[16] = tested on: MDA-MB-435
[17] = tested on: MDA-N
[18] = tested on: NCI-H522 lung
[19] = tested on: OVCAR-3 ovarian
[20] = tested on: OVCAR-4 ovarian
[21] = tested on: OVCAR-5 ovarian
[22] = tested on: PC-3 prostate
[23] = tested on: RPMI-8226 leukemia
[24] = tested on: RXF 393 renal
[25] = tested on: SF-295 CNS
[26] = tested on: SK-MEL-28 melanoma
[27] = tested on: SK-MEL-5 melanoma
[28] = tested on: SK-OV-3 ovarian
[29] = tested on: SNB-75 CNS
[30] = tested on: UACC-257 melanoma
[31] = tested on: UACC-62 melanoma
[32] = tested on: UO-31 renal
[33] = tested on: A549 NSCLC
[34] = tested on: CCRF-CEM leukemia
[35] = tested on: EKVX NSCLC
[36] = tested on: HCT-116 colon
[37] = tested on: HCT-15 colon
[38] = tested on: HL-60(TB) leukemia
[39] = tested on: HS 578T breast
[40] = tested on: M14 melanoma
[41] = tested on: MCF7 breast
[42] = tested on: MOLT-4 leukemia
[43] = tested on: NCI-H23 lung
[44] = tested on: NCI-H460 lung
[45] = tested on: NCI/ADR-RES ovarian
[46] = tested on: OVCAR-8 ovarian
[47] = tested on: SF-268 CNS
[48] = tested on: SF-539 CNS
[49] = tested on: SK-MEL-2 melanoma
[50] = tested on: SN12C renal
[51] = tested on: SNB-19 CNS
[52] = tested on: SR leukemia
[53] = tested on: SW-620 colon
[54] = tested on: T-47D breast
[55] = tested on: TK-10 renal
[56] = tested on: U251 CNS

C=CC(C)(C)n1cc(C2=C(O)C(=O)C(c3cn(C(C)(C)C=C)c4ccccc34)=C(OC(C)=O)C2=O)c2ccccc21
TGI [1]: 2.8 µM
TGI [2]: 2.1 µM
TGI [3]: 2.55 µM
TGI [4]: 2.28 µM
TGI [5]: 3.07 µM
TGI [6]: 2.23 µM
TGI [7]: 2.16 µM
TGI [8]: 1.94 µM
TGI [9]: 1.95 µM
TGI [10]: 1.65 µM
TGI [11]: 2.17 µM
TGI [12]: 1.97 µM
TGI [13]: 1.72 µM
TGI [14]: 3.06 µM
TGI [15]: 2.63 µM
TGI [16]: 1.74 µM
TGI [17]: 1.99 µM
TGI [18]: 2.97 µM
TGI [19]: 2.25 µM
TGI [20]: 2.64 µM
TGI [21]: 3.08 µM
TGI [22]: 1.99 µM
TGI [23]: 3.88 µM
TGI [24]: 2.38 µM
TGI [25]: 1.88 µM
TGI [26]: 2.5 µM
TGI [27]: 1.87 µM
TGI [28]: 2.85 µM
TGI [29]: 1.55 µM
TGI [30]: 2.19 µM
TGI [31]: 2.18 µM
TGI [32]: 2.3 µM

O=C(O)CCCc1nc2c(n1-c1ccccc1)C(=O)c1ccccc1C2=O
TGI [1]: > 100 µM
TGI [2]: > 100 µM
TGI [33]: > 100 µM
TGI [3]: > 100 µM
TGI [4]: > 100 µM
TGI [34]: > 100 µM
TGI [5]: > 100 µM
TGI [6]: > 100 µM
TGI [35]: > 100 µM
TGI [7]: > 100 µM
TGI [36]: > 100 µM
TGI [37]: > 100 µM
TGI [38]: > 100 µM
TGI [9]: > 100 µM
TGI [39]: > 100 µM
TGI [10]: > 100 µM
TGI [11]: > 100 µM
TGI [12]: > 100 µM
TGI [13]: > 100 µM
TGI [40]: > 100 µM
TGI [14]: 51.8 µM
TGI [41]: > 100 µM
TGI [15]: > 100 µM
TGI [17]: > 100 µM
TGI [42]: > 100 µM
TGI [43]: > 100 µM
TGI [44]: > 100 µM
TGI [18]: > 100 µM
TGI [45]: > 100 µM
TGI [19]: 82.7 µM
TGI [20]: 76.2 µM
TGI [21]: > 100 µM
TGI [46]: > 100 µM
TGI [23]: > 100 µM
TGI [47]: > 100 µM
TGI [25]: > 100 µM
TGI [48]: > 100 µM
TGI [49]: > 100 µM
TGI [26]: > 100 µM
TGI [28]: > 100 µM
TGI [50]: > 100 µM
TGI [51]: > 100 µM
TGI [29]: > 100 µM
TGI [52]: > 100 µM
TGI [53]: > 100 µM
TGI [54]: > 100 µM
TGI [55]: > 100 µM
TGI [56]: > 100 µM
TGI [30]: > 100 µM
TGI [31]: > 100 µM
TGI [32]: > 100 µM
